# Laboratory results reported in patent US20230123104A1, “CRYSTAL OF TRICYCLIC COMPOUND ACTING ON CRBN PROTEIN AND PREPARATION METHOD THEREFOR” (CHIA TAI TIANQING PHARMACEUTICAL GROUP CO., LTD., priority 2020, published 2023).
# What was measured:
# Assay type in all cases: physicochemical
# [1] = Hygroscopicity study by dynamic vapor sorption (DVS)
# Protocol: In the present application, dynamic vapor sorption (DVS) analysis is performed under the following conditions: instrument: SMS DVS Advantage-1; equilibration: dm/dt=0.01%/min (shortest: 60 min, longest: 180 min); drying: drying at 0% RH for 120 min; RH (%) test gradient: 10%; range of RH (%) test gradient: 0%-90%-0%.
# The evaluation of hygroscopicity was classified as follows:
# Dynamic Vapor Sorption Apparatus SMS DVS Advantage-1
# 10-15 mg of the crystalline form A of the compound of formula (I) was placed in a DVS sample tray and tested.
# [2] = Stability test of crystalline form A in different solvents (XRPD); settings: methanol, ethanol, acetone, acetonitrile, tetrahydrofuran, methyl tert-butyl ether, ethyl acetate, water, acetonitrile or acetone with water
# Protocol: 50-mg portions of the crystalline form A of the compound of formula (I) were weighed into different 2.0 mL glass vials, and appropriate amounts of single or mixed solvents in the table below were added. After the addition of magnetic stir bars, the samples were stirred on a magnetic stirrer (25° C./50° C., 700 rpm) in the dark. The 25° C. samples were stirred for 1 week and centrifuged, and the resulting solid samples were dried in a vacuum oven at 40° C. overnight. The 50° C. samples were stirred for 2 days and centrifuged in a centrifuge tube with a filter membrane, and the solvent in the lower layer was discarded. The samples were let stand in a fume hood for 1 h so that they were air-dried. The resulting dried samples were subjected to XRPD analysis to determine their crystalline forms.
# [3] = Solid stability test at high temperature, at high humidity, and in intense light
# Protocol: According to the “Guidelines for the Stability Test of APIs and Preparations” (General Principles 9001 of the Four Parts of the Chinese Pharmacopoeia, 2020 Edition), the stability of the crystalline form A of the compound of formula (I) was investigated at high temperature (60° C., open), at high humidity (room temperature/relative humidity at 92.5%, open), and in intense light (5000±500 Lux, 90 μw/cm^2, open).
# 1.5 g of the crystalline form A of the compound of formula (I) was weighed into an open measuring flask and spread out to form a thin layer. The sample for high temperature test was placed in an electrothermal drying oven and investigated, and the sample for high humidity test was placed in an integrated drug stability test chamber and investigated. Samples were taken on days 5, 10 and 30 for analysis, and the results were compared with the preliminary results of day 0. The sample for intense light test was placed in an open flask. Samples were taken on days 5 and 10 for analysis, and the results were compared with the preliminary results of day 0.
# [4] = Solid stability test under accelerated conditions (40° C./relative humidity at 75%, sealed)
# Protocol: According to the “Guidelines for the Stability Test of APIs and Preparations” (General Principles 9001 of the Four Parts of the Chinese Pharmacopoeia, 2020 Edition), the stability of the crystalline form A of the compound of formula (I) was investigated under accelerated conditions at high temperature and high humidity (40° C./relative humidity at 75%, sealed).
# (§1) 1.5 g of the crystalline form A of the compound of formula (I) was weighed into a double-layer low-density polyethylene bag. Each layer a the low-density polyethylene bag was sealed with a binding tie, and the bag was put into an aluminum foil bag. Samples were taken in months 1, 2, 3 and 6 for analysis, and the results were compared with the preliminary results of day 0. This experiment was repeated twice, each with a different batch of the crystalline form A of the compound of formula (I).
# [5] = Solid stability test under long-term conditions (25° C./relative humidity at 60%, sealed)
# Protocol: According to the “Guidelines for the Stability Test of APIs and Preparations” (General Principles 9001 of the Four Parts of the Chinese Pharmacopoeia, 2020 Edition), the stability of the crystalline form A of the compound of formula (I) was investigated under long-terns conditions (25° C./relative humidity at 60%, sealed).
# as §1, with “layer of” for “layer a”, “foil hag.” for “foil bag.”, “months” for “months 1, 2,”
# [6] = High humidity (room temperature/relative humidity 92.5%, open), Day 5
# [7] = High humidity (room temperature/relative humidity 92.5%, open), Day 10
# [8] = High humidity (room temperature/relative humidity 92.5%, open), Day 30
# [9] = High temperature (60° C., open), Day 5
# [10] = High temperature (60° C., open), Day 10
# [11] = High temperature (60° C., open), Day 30
# [12] = Intense light (5000 ± 500 Lux, 90 μw/cm^2, open), Day 5
# [13] = Intense light (5000 ± 500 Lux, 90 μw/cm^2, open), Day 10
# [14] = Batch 1, 40° C./relative humidity at 75%, sealed, Month 1
# [15] = Batch 1, 40° C./relative humidity at 75%, sealed, Month 2
# [16] = Batch 1, 40° C./relative humidity at 75%, sealed, Month 3
# [17] = Batch 1, 40° C./relative humidity at 75%, sealed, Month 6
# [18] = Batch 2, 40° C./relative humidity at 75%, sealed, Month 1
# [19] = Batch 2, 40° C./relative humidity at 75%, sealed, Month 2
# [20] = Batch 2, 40° C./relative humidity at 75%, sealed, Month 3
# [21] = Batch 2, 40° C./relative humidity at 75%, sealed, Month 6
# [22] = Batch 1, 25° C./relative humidity at 60%, sealed, Month 3
# [23] = Batch 1, 25° C./relative humidity at 60%, sealed, Month 6
# [24] = Batch 2, 25° C./relative humidity at 60%, sealed, Month 3
# [25] = Batch 2, 25° C./relative humidity at 60%, sealed, Month 6
smiles,measurement,setting,value
O=C1CCC(c2noc3ccc4[nH]ccc4c23)C(=O)N1 (stereo not drawn),hygroscopicity classification,"[1]; 25° C., 80% RH, DVS",no or almost no hygroscopicity
same,crystalline form after DVS test,[1]; after DVS,remained unchanged
same,stability in solvents (conclusion),[2],good stability
same,Content,[3]; Day 0,98.9%
same,Total impurities,[3]; Day 0,<0.05%
same,Content,[3]; [6],100.7%
same,Total impurities,[3]; [6],<0.05%
same,Content,[3]; [7],100.2%
same,Total impurities,[3]; [7],<0.05%
same,Content,[3]; [8],100.4%
same,Total impurities,[3]; [8],<0.05%
same,Content,[3]; [9],99.9%
same,Total impurities,[3]; [9],<0.05%
same,Content,[3]; [10],100.2%
same,Total impurities,[3]; [10],<0.05%
same,Content,[3]; [11],100.2%
same,Total impurities,[3]; [11],<0.05%
same,Content,[3]; [12],100.7%
same,Total impurities,[3]; [12],<0.05%
same,Content,[3]; [13],100.0%
same,Total impurities,[3]; [13],<0.05%
same,solid stability (conclusion),"[3]; at high temperature, at high humidity, and in intense light",good stability
same,Content,[4]; [14],100.1%
same,Total impurities,[4]; [14],0.05%
same,Content,[4]; [15],100.4%
same,Total impurities,[4]; [15],<0.05%
same,Content,[4]; [16],100.4%
same,Total impurities,[4]; [16],<0.05%
same,Content,[4]; [17],98.1%
same,Total impurities,[4]; [17],<0.05%
same,Content,"[4]; Batch 1, Day 0",98.9%
same,Total impurities,"[4]; Batch 1, Day 0",<0.05%
same,Content,[4]; [18],100.0%
same,Total impurities,[4]; [18],0.05%
same,Content,[4]; [19],100.2%
same,Total impurities,[4]; [19],<0.05%
same,Content,[4]; [20],100.2%
same,Total impurities,[4]; [20],<0.05%
same,Content,[4]; [21],99.2%
same,Total impurities,[4]; [21],<0.05%
same,Appearance,"[4]; Batch 2, Day 0",White powder
same,Content,"[4]; Batch 2, Day 0",100.2%
same,Total impurities,"[4]; Batch 2, Day 0",<0.05%
same,solid stability (conclusion),[4]; accelerated conditions at 40° C. with relative humidity at 75%,good stability
same,Content,[5]; [22],99.8%
same,Total impurities,[5]; [22],<0.05%
same,Content,[5]; [23],99.2%
same,Total impurities,[5]; [23],<0.05%
same,Content,"[5]; Batch 1, Day 0",98.9%
same,Total impurities,"[5]; Batch 1, Day 0",<0.05%
same,Appearance,[5]; [24],White powder
same,Content,[5]; [24],100.4%
same,Total impurities,[5]; [24],<0.05%
same,Appearance,[5]; [25],White powder
same,Content,[5]; [25],100.4%
same,Total impurities,[5]; [25],<0.05%
same,Appearance,"[5]; Batch 2, Day 0",White powder
same,Content,"[5]; Batch 2, Day 0",100.2%
same,Total impurities,"[5]; Batch 2, Day 0",<0.05%
same,solid stability (conclusion),[5]; long-term conditions at 25° C. with relative humidity at 60%,good stability
